Measured values reported in US6087358A (priority 1997, dated 2000).
≈ marks a conversion by molar mass, not a printed value. Read-outs that look alike come from different tables or passages of the source.

How the values were obtained:
[1] = test system: Mycobacterium bovis BCG (recombinant strain); assay: microbe, parasite or virus in culture; type: cell-based; conditions: 6 days 37° C.; for MIC: Mycobacterium tuberculosis variant bovis BCG, BCG, 144 h, read-out: MIC, column A, 3(S) compounds
[2] = test system: Mycobacterium tuberculosis (rMTB); assay: In vivo antimycobacterial activity against M. tuberculosis (rMTB) in lungs of mice; set-up: species or system Mycobacterium tuberculosis Erdman, in female BALB/c mice; conditions: 25 mg/kg daily oral gavage, CM-2, 10 days, control 117,258 (PA-824, 636, 1297) or 22,751 (others)
[3] = test system: Mycobacterium tuberculosis (rMTB); assay: In vivo antimycobacterial activity against M. tuberculosis (rMTB) in spleens of mice; set-up: species or system Mycobacterium tuberculosis Erdman, in female BALB/c mice; conditions: 25 mg/kg daily oral gavage, CM-2, 10 days, control 422,866 (PA-824, 636, 1297) or 362,274 (others)
Helicobacter pylori = assay: In vitro inhibition of Helicobacter pylori (broth microdilution MIC); conditions: for MIC: Helicobacter pylori
[4] = test system: Helicobacter pylori Strain 4187E; assay: In vivo activity against Helicobacter pylori strain 4187E in mice; set-up: species or system in outbred female white mice; conditions: oral gavage, four days
Source text: Outbred female white mice (20 grams) were infected by oral gavage with 10^7 -10^8 colony forming units of H. pylori strain 4187E (originally isolated from a patient with a duodenal ulcer). […] Treatment continued for four days. Clarithromycin, administered at the same concentration and for the same duration, was included as a positive control. One group of animals also received an equal volume of formulation vehicle alone, to provide a negative control.
Five days after cessation of treatment, all animals were sacrificed, the stomachs were removed, opened, and the contents washed out. The entire mucosal surface was then spread evenly over the surface of an agar plate containing antibiotics appropriate for the prevention of growth of microorganisms other than Helicobacter spp. After seven days incubation under microaeropilic conditions at 37° C., culture plates were evaluated for bacterial growth.

[5] = test system: Mycobacterium tuberculosis H37Rv (sensitive strain); assay: MIC as determined by the BACTEC method, sensitive strain; type: cell-based; conditions: M. tuberculosis H37Rv (sensitive strain), read-out: MIC, column B, 3(S) compounds
[6] = test system: Clostridium difficile ATCC 17857; assay: In vitro inhibition of Clostridium difficile (Oxyrase broth microdilution MIC); type: cell-based; conditions: Clostridioides difficile, ATCC17857; Clostridium difficile ATCC 17857, Oxyrase broth; read-out: MIC, column D, 3(S) compounds
Cryptosporidium parvum = assay: Inhibition of Cryptosporidium parvum (ELISA, infected HCT-8 monolayers); type: cell-based; conditions: Cryptosporidium parvum, HCT-8, 48 h, read-out: Percent Inhibition of C. parvum
Method: Susceptibility testing against Cryptosporidium was performed according to published procedures (K. Woods, M. Nesterenko, S. Upton, "Development of a microtiter ELISA to quantify development of Cryptosporidium parvum in vitro," FEMS Microbiology Letters, 128:89-94 (1995).
Compounds were solubilized to a concentration of 100 mg/mL in 100% DMSO. DMSO solutions of test compounds were added to the test wells of a microplate at a volume that produced a final concentration of DMSO of 0.2%. Monolayers of human ileocecal adenocarcinoma cells (HCT-8) were prepared by growth in RPMI 1640 medium in 96-Well tissue culture trays for 24 h. Oocysts of C. parvum were allowed to excyst in 10% bleach for 10 min prior to use. Monolayers were then infected with 2-3×10^4 oocysts/well and incubated in the presence or absence of compound for 48 h at 35° C. in 5% CO2 and 95% humidity. Background consisted of wells containing killed oocysts (freeze thaw cycle following 30 sec exposure to liquid nitrogen). Growth control wells were infected with 2-3×10^4 oocysts/well in the absence of test compounds. At the end of incubation, wells were washed and fixed by adding 100 uL of 4% formalin in phosphate buffered saline (pH 7.3) per well for 2 h. After blocking with 1% bovine serum albumin, and 0.002% Tween 20, 50 uL of rat anti-Cryptosporidium membrane protein antiserum was added. After 30 min, wells were washed in PBS and 50 uL of secondary antibody (goat anti-rat antibody conjugated with horseradish peroxidase) was added. After 20-30 min, wells were washed again in PBS and 50 uL of 3,3',5,5'-tetramethylbenzidine solution was added. Plates were allowed to develop for 10-15 min and the optical density was read at 630 nm. Percent inhibition was calculated by comparing the optical density of the drug treated group to that of the untreated control.

Helicobacter felis = assay: In vivo activity against Helicobacter felis in mice (urease test of stomach biopsy); set-up: species or system in female CD-1 mice; conditions: 50 mg/kg three times daily oral gavage, CM-2, four days; vehicle and untreated 100
Method: Female CD-1 mice weighing 30 grams were infected by oral gavage with 10^8 -10^9 colony forming units of H. felis. This infection process was repeated two, and four days, thereafter. Colonization of the stomach was allowed to occur over a seven day period. Animals were segregated into groups of five, and were treated three times daily by oral gavage with 50 mg/kg of test drugs prepared in the CM-2 formulation vehicle (Example 52). Treatment continued for four days. One group of animals received an equal volume of formulation vehicle alone, to ensure that the vehicle had no effect on the Helicobacter infection. A separate untreated control group was also included.
All animals were then sacrificed, the stomachs were removed, opened, and the contents washed out. A five millimeter diameter biopsy was removed, and transferred to a urease test solution containing a pH-sensitive dye, which was then incubated at 37° C. incubator for 24 hours. A blue or purple coloration in this test solution signifies a positive reaction, indicating the continued presence of viable Helicobacter bacteria; a negative result is indicated by a yellow coloration. Viable Helicobacter bacteria produce a urease enzyme which converts urea, of which there is an abundant supply in the stomach (from saliva and gastric juices), into bicarbonate and ammonia, which are strong bases. This mechanism is considered to provide conditions more amenable to the survival of Helicobacter in the otherwise acidic conditions prevalent in the stomach.

[7] = 72 h, read-out: MIC against Helicobacter pylori, strain 17 (Table 5A)
[8] = 72 h, read-out: MIC against Helicobacter pylori, strain 19 (Table 5A)
[9] = 72 h, read-out: MIC against Helicobacter pylori, strain 20 (Table 5A)
[10] = 72 h, read-out: MIC against Helicobacter pylori, strain 40 (Table 5A)
[11] = 72 h, read-out: MIC against Helicobacter pylori, strain 43 (Table 5A)
[12] = 72 h, read-out: MIC against Helicobacter pylori, strain 76 (Table 5A)
[13] = ATCC43504, 72 h, read-out: MIC against Helicobacter pylori, strain ATCC 43504 (Table 5A)

Compound | Average RLUs, M. tuberculosis (rMTB) in lungs [2] | Average RLUs, M. tuberculosis (rMTB) in spleens [3] | MIC (Helicobacter pylori; [7]) [µg/mL] | MIC (Helicobacter pylori; [8]) [µg/mL] | MIC (Helicobacter pylori; [9]) [µg/mL] | MIC (Helicobacter pylori; [10]) [µg/mL] | MIC (Helicobacter pylori; [11]) [µg/mL] | MIC (Helicobacter pylori; [12]) [µg/mL] | MIC (Helicobacter pylori; [13]) [µg/mL] | % Eradication ([4]; twice daily 5 mg/kg) [%] | % Eradication ([4]; twice daily 50 mg/kg) [%] | MIC [1] [µg/mL] | MIC [6] [µg/mL] | further results
4-Bromobenzyl Carbamate of 3S 3-Hydroxy-6-nitro-3,4-dihydro-[2-1b]imidazopyran [PA-1324] | 1,612 RLUs | 85,130 RLUs |  |  |  |  |  |  |  |  |  |  |  | MIC, column A, 3(S) compounds [1]: 0.015
CC[C@H]1OC(=O)[C@H](C)[C@@H](O[C@H]2C[C@@](C)(OC)[C@@H](O)[C@H](C)O2)[C@H](C)[C@@H](O[C@@H]2O[C@H](C)C[C@H](N(C)C)[C@H]2O)[C@](C)(OC)C[C@@H](C)C(=O)[C@H](C)[C@@H](O)[C@]1(C)O [Clarithromycin, reference compound] |  |  | 0.016 (≈ 0.0214 µM) | 8 (≈ 10.7 µM) | 8 (≈ 10.7 µM) | 0.016 (≈ 0.0214 µM) | 0.008 (≈ 0.0107 µM) | 0.032 (≈ 0.0428 µM) | 0.06 (≈ 0.0802 µM) | 0 | 100 |  |  | MICs of control drugs relative to expected values (Helicobacter pylori; H. pylori ATCC 43): within the expected values; MIC (Helicobacter pylori; 72 h, read-out: MIC against Helicobacter pylori, strain B40, Met-S, Clar-S (Table 5B)): < 0.015 µg/mL; MIC (Helicobacter pylori; 72 h, read-out: MIC against Helicobacter pylori, strain B76, Met-R, Clar-S (Table 5B)): < 0.015 µg/mL; MIC (Helicobacter pylori; 72 h, read-out: MIC against Helicobacter pylori, strain C1649, Met-R, Clar-R (Table 5B)): > 4 µg/mL; MIC (Helicobacter pylori; 72 h, read-out: MIC against Helicobacter pylori, strain C11403, Met-S, Clar-R (Table 5B)): 4 µg/mL (≈ 5.35 µM); MIC (Helicobacter pylori; 72 h, read-out: MIC against Helicobacter pylori, strain C19765 (Table 5B)): < 0.015 µg/mL; MIC (Helicobacter pylori; 72 h, read-out: MIC against Helicobacter pylori, strain RD26, Met-S, Clar-S (Table 5B)): 0.03 µg/mL (≈ 0.0401 µM); MIC (Helicobacter pylori; 72 h, read-out: MIC against Helicobacter pylori, strain rd26, Met-S, Clar-S (Table 5B)): 0.03 µg/mL (≈ 0.0401 µM); MIC (Helicobacter pylori; ATCC43504, 72 h, read-out: MIC against Helicobacter pylori, strain ATCC 43504, Met-R, Clar-S (Table 5B)): 0.03 µg/mL (≈ 0.0401 µM); MIC (Helicobacter pylori; ATCC43526, 72 h, read-out: MIC against Helicobacter pylori, strain ATCC 43526, Met-R, Clar-S (Table 5B)): < 0.015 µg/mL; MIC (Helicobacter pylori; ATCC43579, 72 h, read-out: MIC against Helicobacter pylori, strain ATCC 43579, Met-S, Clar-S (Table 5B)): < 0.015 µg/mL; MIC (Helicobacter pylori; ATCC43629, 72 h, read-out: MIC against Helicobacter pylori, strain ATCC 43629, Met-S, Clar-S (Table 5B)): 0.03 µg/mL (≈ 0.0401 µM)
CC(C)=CCC/C(C)=C/CO[C@@H]1COc2nc([N+](=O)[O-])cn2C1 [PA-626] |  |  |  |  |  |  |  |  |  |  |  | 0.5 (≈ 1.56 µM) | 0.8 (≈ 2.49 µM) | MIC [5]: 0.13 µg/mL (≈ 0.405 µM)
O=[N+]([O-])c1cn2c(n1)OC[C@@H](OCc1ccc(C(F)(F)F)cc1)C2 [PA-636, 3S 4-(Trifluromethyl)benzyloxy-6-nitro-2H-3,4-dihydo-[2-1b]imidazopyran] | 5,790 RLUs | 91,377 RLUs |  |  |  |  |  |  |  |  |  | 0.5 (≈ 1.46 µM) | 3.12 (≈ 9.09 µM) | inhibition at 25 µg/mL (Cryptosporidium parvum; 25 μg/mL): 14.5%; inhibition at 50 µg/mL (Cryptosporidium parvum; 50 μg/mL): 9.4%; inhibition at 100 µg/mL (Cryptosporidium parvum; 100 μg/mL): 21%; inhibition at 200 µg/mL (Cryptosporidium parvum; 200 μg/mL): 39%
CCCCc1ccc(CO[C@@H]2COc3nc([N+](=O)[O-])cn3C2)cc1 [PA-822] |  |  | 25 (≈ 75.4 µM) | 0.2 (≈ 0.604 µM) | 0.2 (≈ 0.604 µM) | 0.2 (≈ 0.604 µM) | 0.4 (≈ 1.21 µM) | 6.25 (≈ 18.9 µM) | > 25 | 0 | 0 | 0.06 (≈ 0.181 µM) | 12.5 (≈ 37.7 µM) | % Survival (Helicobacter felis): 100%; % Eradication ([4]; once daily 25 mg/kg): 0%
